PMC11079024, “Identification of a family of species-selective complex I inhibitors as potential anthelmintics” (Nature Communications, 2024)
Several values for one entry are separate records, joined by “and”; a condition that tells them apart may be missing. Identical values can stand only once. Like-named read-outs stand apart in the source and are kept apart here.

How the values were obtained:
[1] = tested on: C. elegans complex III (decylubiquinol-cytochrome C reductase); assay: In vitro complex III activity assay, C. elegans mitochondria; format: biochemical, Caenorhabditis elegans
Summary of the method: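 Mitochondria were isolated from adult C. elegans by bead-beating and differential centrifugation, then used at 0.2 mg/mL protein. Antimycin A-sensitive complex III activity was followed as decylubiquinol-driven cytochrome C reduction at 550 nm every 30 s for 15 min. Initial linear slopes were expressed as percent of solvent control.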

[2] = molecular target: M. musculus (heart) complex I (Mus musculus, UniProt P03888+Q91WD5+Q9DC70); assay: biochemical; format: biochemical; parameters: Complex I activity, dose-response data: unit not given here; details: for activity at 0.0001 µM / Complex I activity, dose-response data / activity at 0.0005 µM / activity at 0.001 µM / activity at 0.0025 µM / activity at 0.005 µM / activity at 0.013 µM / activity at 0.025 µM / activity at 0.063 µM / activity at 0.125 µM / activity at 0.313 µM / activity at 0.625 µM / activity at 1.5 µM / activity at 3 µM / activity at 15 µM / activity at 37.5 µM / activity at 75 µM: M. musculus; for activity at 0.0001 µM / activity at 0.0005 µM / activity at 0.001 µM / activity at 0.0025 µM / activity at 0.005 µM / activity at 0.013 µM / activity at 0.025 µM / activity at 0.063 µM / activity at 0.125 µM / activity at 0.313 µM / activity at 0.625 µM / activity at 1.5 µM / activity at 3 µM / activity at 15 µM / activity at 37.5 µM / activity at 75 µM: read-out: Complex I activity, dose-response data
Method: Six 8–10-week-old C57Bl/6 female mice (Charles River) were freshly dissected, and their livers and hearts collected into separate 1.5 mL microcentrifuge tubes. Organs were flash-frozen in liquid nitrogen and stored at −80 °C prior to use. The heart of a freshly slaughtered adult cow was obtained from a local abattoir (Peel Sausage Inc.), chopped into ~1-inch cubes and collected into 50 mL falcon tubes. Falcon tubes were flash-frozen in a container of dry ice and stored at −80 °C prior to use. Isolation of mitochondria from all mammalian tissue was carried out following the protocol described above. However, due to size, the initial homogenization of tissue was performed by 15 strokes in a dounce homogenizer (mouse heart) or with several 5 s pulses in small Nutribullet blender (cow heart). All mouse protocols for mouse care and dissection were reviewed and approved by the University of Toronto Animal Care Committee, in accordance with the Canadian Council on Animal Care.
The enzymatic activities of individual ETC complexes (I-IV) were assessed spectrophotometrically in isolated mitochondria using a Varioskan LUX Multimode plate reader (ThermoFisher Scientific). Mitochondrial pellets previously isolated were thawed on ice and resuspended in ice-cold isolation buffer (250 mM sucrose, 10 mM Tris (pH 7.5), 1 mM EDTA). The BCA assay (Walker, 1994) was used to quantify the protein concentration of mitochondria suspensions; solutions were diluted to a concentration of 0.2 mg/mL for use in all assays. For the complex I assay, mitochondria pellets were freeze-thawed on ice three times to increase enzyme accessibility. […] 20 μL mitochondria suspension was then added/mixed with a pipette to initiate the reaction. Immediately following the addition of mitochondria, absorbance was measured (complex I and II: 600 nm; complex III and IV: 550 nm) in 30 s intervals over 15 min. Enzymatic activity was determined in each reaction by plotting absorbance versus time and calculating the slope of the curve during the initial linear phase of the reaction. […] Percent activity of each complex was calculated by dividing the enzyme-specific activity of each well by the enzyme-specific activity of the corresponding solvent controls.
Chemical solutions were prepared in complex I assay buffer composed of 25 mM KPi buffer (pH 7.5), 3 mg/mL bovine serum albumin (BSA), 80 μM NADH, 60 μM decylubiquinone, 160 μM DCIP, 2 μM antimycin A and 2 mM KCN.
For preliminary screens of hit compounds, compounds were screened at 100 μM; data are the average of at least three biological replicates. The complex I and II activity assays were used for additional dose-response experiments. […] For dose responses of benzimidazole analogs, data represent the average of two biological replicates. For all other dose-responses, data represent the average of at least three biological replicates.

[3] = dose 0.0001 µM, individual replicates (Rep)
[4] = dose 0.0005 µM, individual replicates (Rep)
[5] = dose 0.001 µM, individual replicates (Rep)
[6] = dose 0.0025 µM, individual replicates (Rep)
[7] = dose 0.005 µM, individual replicates (Rep)
[8] = dose 0.013 µM, individual replicates (Rep)
[9] = dose 0.025 µM, individual replicates (Rep)
[10] = dose 0.063 µM, individual replicates (Rep)
[11] = dose 0.125 µM, individual replicates (Rep)
[12] = dose 0.313 µM, individual replicates (Rep)
[13] = dose 0.625 µM, individual replicates (Rep)
[14] = dose 1.5 µM, individual replicates (Rep)
[15] = dose 3 µM, individual replicates (Rep)
[16] = dose 15 µM, individual replicates (Rep)
[17] = dose 37.5 µM, individual replicates (Rep)
[18] = dose 75 µM, individual replicates (Rep)

M. musculus (heart) complex I, sequence (Q91WD5 34-463): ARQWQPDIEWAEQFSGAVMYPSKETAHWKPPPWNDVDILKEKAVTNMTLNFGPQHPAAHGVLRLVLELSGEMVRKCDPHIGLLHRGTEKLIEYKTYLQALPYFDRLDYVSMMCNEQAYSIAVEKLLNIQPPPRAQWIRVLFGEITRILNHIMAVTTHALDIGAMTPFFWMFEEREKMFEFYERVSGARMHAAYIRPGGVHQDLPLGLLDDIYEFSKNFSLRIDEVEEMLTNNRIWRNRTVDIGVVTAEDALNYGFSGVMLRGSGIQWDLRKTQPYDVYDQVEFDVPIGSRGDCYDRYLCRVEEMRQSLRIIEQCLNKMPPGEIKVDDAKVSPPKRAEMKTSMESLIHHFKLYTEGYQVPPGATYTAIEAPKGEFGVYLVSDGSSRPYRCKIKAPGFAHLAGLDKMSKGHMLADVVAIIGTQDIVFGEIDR
M. musculus (heart) complex I, sequence (Q9DC70 36-224): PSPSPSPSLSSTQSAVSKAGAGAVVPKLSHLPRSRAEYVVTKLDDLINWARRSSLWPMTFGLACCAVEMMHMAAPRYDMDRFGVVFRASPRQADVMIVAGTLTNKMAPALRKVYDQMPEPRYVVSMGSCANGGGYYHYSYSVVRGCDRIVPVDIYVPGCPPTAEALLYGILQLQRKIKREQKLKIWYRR
M. musculus (heart) complex I, sequence (P03888 whole entry): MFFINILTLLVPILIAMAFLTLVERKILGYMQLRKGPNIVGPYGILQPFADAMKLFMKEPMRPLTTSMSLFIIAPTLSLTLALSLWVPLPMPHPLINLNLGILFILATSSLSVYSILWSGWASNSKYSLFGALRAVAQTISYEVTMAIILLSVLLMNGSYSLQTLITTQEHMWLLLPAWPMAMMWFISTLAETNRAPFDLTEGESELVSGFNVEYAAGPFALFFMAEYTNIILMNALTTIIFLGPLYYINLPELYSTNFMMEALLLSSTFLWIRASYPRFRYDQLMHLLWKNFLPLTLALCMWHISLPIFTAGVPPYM

COc1cc2c(cc1OC)C(/C=C/c1ccc(N(C)C)cc1)=NCC2 [NPD6303]
% Activity Complex III ([1]; 100 µM compound, relative to solvent control, mean (SEM)): 78.10 (1.39) %
Percent in vitro activity, Complex III (single replicate Rep1-Rep4) ([1]; 100 μM of NPD compound, C. elegans mitochondria, individual biological replicates): 81.950% and 83.314% and 71.366% and 75.773%
Percent in vitro activity, Complex III (Mean) ([1]; 100 μM of NPD compound, C. elegans mitochondria, mean of four biological replicates): 78.101%
activity at 0.0001 µM ([2]; dose 0.0001 µM, Mean of replicates): 101%
Complex I activity, dose-response data [2, 3]: 95.113 and 105.612 and 100.336
activity at 0.0001 µM [2, 3]: 101%
activity at 0.0005 µM ([2]; dose 0.0005 µM, Mean of replicates): 103%
Complex I activity, dose-response data [2, 4]: 98.745 and 107.836 and 100.101
activity at 0.0005 µM [2, 4]: 104%
activity at 0.001 µM ([2]; dose 0.001 µM, Mean of replicates): 104%
Complex I activity, dose-response data [2, 5]: 97.287 and 111.616 and 104.649
activity at 0.001 µM [2, 5]: 101%
activity at 0.0025 µM ([2]; dose 0.0025 µM, Mean of replicates): 105%
Complex I activity, dose-response data [2, 6]: 102.935 and 109.008 and 106.731
activity at 0.0025 µM [2, 6]: 103%
activity at 0.005 µM ([2]; dose 0.005 µM, Mean of replicates): 104%
Complex I activity, dose-response data [2, 7]: 104.920 and 109.298 and 99.669
activity at 0.005 µM [2, 7]: 102%
activity at 0.013 µM ([2]; dose 0.013 µM, Mean of replicates): 106%
Complex I activity, dose-response data [2, 8]: 109.789 and 107.516 and 104.172
activity at 0.013 µM [2, 8]: 104%
activity at 0.025 µM ([2]; dose 0.025 µM, Mean of replicates): 104%
Complex I activity, dose-response data [2, 9]: 102.950 and 107.489 and 103.259
activity at 0.025 µM [2, 9]: 103%
activity at 0.063 µM ([2]; dose 0.063 µM, Mean of replicates): 106%
Complex I activity, dose-response data [2, 10]: 109.017 and 105.796 and 103.155
activity at 0.063 µM [2, 10]: 107%
activity at 0.125 µM ([2]; dose 0.125 µM, Mean of replicates): 104%
Complex I activity, dose-response data [2, 11]: 107.003 and 106.214 and 101.940
activity at 0.125 µM [2, 11]: 102%
activity at 0.313 µM ([2]; dose 0.313 µM, Mean of replicates): 204%
Complex I activity, dose-response data [2, 12]: 207.003 and 206.214 and 201.940
activity at 0.313 µM [2, 12]: 202%
activity at 0.625 µM ([2]; dose 0.625 µM, Mean of replicates): 304%
Complex I activity, dose-response data [2, 13]: 307.003 and 306.214 and 301.940
activity at 0.625 µM [2, 13]: 302%
activity at 1.5 µM ([2]; dose 1.5 µM, Mean of replicates): 404%
Complex I activity, dose-response data [2, 14]: 407.003 and 406.214 and 401.940
activity at 1.5 µM [2, 14]: 402%
activity at 3 µM ([2]; dose 3 µM, Mean of replicates): 98.6%
Complex I activity, dose-response data [2, 15]: 93.765 and 96.975 and 100.381
activity at 3 µM [2, 15]: 103%
activity at 15 µM ([2]; dose 15 µM, Mean of replicates): 80.3%
Complex I activity, dose-response data [2, 16]: 83.390 and 75.202 and 80.206
activity at 15 µM [2, 16]: 82.4%
activity at 37.5 µM ([2]; dose 37.5 µM, Mean of replicates): 54.3%
Complex I activity, dose-response data [2, 17]: 55.014 and 49.927 and 52.999
activity at 37.5 µM [2, 17]: 59.2%
activity at 75 µM ([2]; dose 75 µM, Mean of replicates): 38.9%
Complex I activity, dose-response data [2, 18]: 39.690 and 34.902 and 38.927
activity at 75 µM [2, 18]: 41.9%
IC50 ([2]; heart mitochondria): 34.9 µM
